“Also recorded” adds a separate entry of the source.
Legend:
[1] = tested on: antigen expressed on human T cells; experiment: Potency testing by FACS binding assay (flow cytometry); settings: 1 week at 45 ° C.
Description: (§1) Because of the results seen in the preliminary evaluation, additional analyses were done using lower concentrations of the preservatives.
The biological activity (potency) of the protein was measured by flow cytometry, based on the binding of the antibody antigen expressed on human T cells.

[2] = tested on: formulated humanized monoclonal antibody; experiment: Visual analysis of the antibody formulation with preservative; assay type: physicochemical; settings: for Visual analysis: after 2 days at 50° C.
Description: (§2) The compatibility of six parenteral preservatives (benzyl alcohol, chlorobutanol, methyl paraben, propyl paraben, phenol, and m-cresol) with the formulated humanized monoclonal antibody was tested. The preservatives were added to the formulated antibody based on their commonly used concentration ranges in marketed multidose products (3). Protein aggregation was suspected to be the primary degradation pathway. Preliminary evaluation of the preservatives was done initially by DSC and after 2 days of incubation at 50° C. by visual inspection for appearance and by SEC for soluble aggregates.

[3] = tested on: Candida albicans, and Aspergillus niger; experiment: Preservative screening test (modified USP/EP preservative efficacy test), fungi; assay type: cell-based; settings: for Fungi × 10^5 (cfu/mL): 1 week at 25 ° C., total fungal count 2.84 × 10^5 cfu/mL
Description: (§3) The efficacy of the preservative against various microorganisms was measured using a modified USP/EP preservative efficacy test. These tests were conducted at Microconsult Inc. (Dallas, Tex.). In the procedure, formulations were tested against the following microorganisms: Escherichia coli, Staphylococcus aureus, Pseudomonas aeruginosa, Candida albicans, and Aspergillus niger. The three bacterial strains were inoculated together at a total concentration of ˜10^5 cfu/mL, and the two fungi were inoculated together at a total concentration of ˜10^5 cfu/mL. Samples were incubated for 7 days at room temperature (25° C.), and the total bacterial and fungal counts were measured using a colony counter. The log reduction (LR) values for the bacterial and fungal counts were calculated as log (initial count/final count).
(§4) In the unmodified USP/EP preservative efficacy tests, each microorganism is tested separately at a concentration of ˜10^5 cfu/mL. […] The preservative efficacy test was modified in this study to reduce the total sample requirement and cost per analysis. Although the bacterial and fungal strains were not tested individually at specified concentrations, by comparing the overall bacterial and fungal log reduction values with the regulatory requirements, an assessment is made of the efficacy of the preservative against these microorganisms.
(§5) The formulations were prepared by adding the preservatives at the desired concentrations as per the I-optimal design table (Table II), generated using the software Strategy (Experiment Strategies Foundation & Process Builder, Inc.). All samples were incubated at 37° C. for 9 weeks. Because protein aggregation was known to be the primary degradation pathway, protein stability was examined by SEC and right-angle light scattering to monitor the formation of soluble and insoluble aggregates, respectively, and by UV spectroscopy to monitor changes in the protein concentration. The biological activity of the samples was assessed after 1 month at 37° C. Furthermore, to assess the antimicrobial efficacy of the formulations, samples were examined by the preservative screening test at the initial time point. Samples were incubated at room temperature, and the aerobic plate counts were measured based on the minimum requirements of the USP and BP/EP preservative efficacy tests at 24 hours, 7 days, and 14 days.

[4] = tested on: formulated humanized monoclonal antibody; experiment: Differential scanning calorimetry (DSC), denaturation temperature; assay type: physicochemical; settings: initial time point, t0
Description: as §2
A decrease in the denaturation temperature reflects a destabilizing effect of the preservative on formulation stability. The denaturation temperature (Tm) of the sample was measured using the Pyris 1 differential scanning calorimeter (Perkin Elmer). A sample volume of 50 μL was taken from a 10 mg/mL protein sample and sealed in a stainless steel pan. The sample was held at 32° C. for 2 minutes, and heated to 100° C. at the rate of 10° C./min.

[5] = tested on: formulated humanized monoclonal antibody; experiment: Size-exclusion chromatography (SEC), monomer content; assay type: physicochemical; settings: for Monomer (%): 1 week at 45 ° C.; for Percent monomer (by SEC): after 2 days at 50° C.
Description: as §2, §1
The monomer content, soluble aggregates, and clips due to hydrolysis were monitored by size-exclusion chromatography. The analytical system employed consisted of an HPLC pump (Perkin Elmer, Series 410) and an autosampler (Perkin Elmer, ISS 2000) connected to a diode array detector (Perkin Elmer, 235C). Two size-exclusion chromatography columns (Tosohaas TSK-Gel, G3000SWXL,), connected in tandem, were used for sample separation. The composition of the mobile phase was 200 mM KPO4, 150 mM NaCl, pH 6.9. Samples were diluted to 1 mg/mL and a sample volume of 40 μL was injected for analysis. The flow rate was 1.0 mL/min, and detection was at 220 and 280 nm.

[6] = tested on: Escherichia coli, Staphylococcus aureus, Pseudomonas aeruginosa, Candida albicans, and Aspergillus niger; experiment: USP and EP/BP preservative efficacy tests; assay type: cell-based; settings: 0.75% benzyl alcohol
Description: as §4
The antimicrobial efficacy of the preservative was monitored by the USP and EP/BP preservative efficacy tests.

[7] = tested on: Escherichia coli, Staphylococcus aureus, Pseudomonas aeruginosa; experiment: Preservative screening test (modified USP/EP preservative efficacy test), bacteria; assay type: cell-based; settings: for b-coefficient, Bacterial LR: ± 95% confidence limits; for Bacterial × 10^4 (cfu/mL): 1 week at 25 ° C., total bacterial count 8.78 × 10^4 cfu/mL
Description: as §3, §4, §5

[8] = tested on: formulated humanized monoclonal antibody; experiment: Stability and bioactivity of the protein formulated with 0.75% benzyl alcohol, monitored over time; assay type: physicochemical
[9] = preservative 0.5%, listed as benzyl alcohol
[10] = main effect of the preservative (bi)
[11] = preservative 0.75%, listed as benzyl alcohol
[12] = quadratic term of one preservative (bii)
[13] = single preservative, 0.75% benzyl alcohol

antibody precipitation ([2]; benzyl alcohol at high concentration such as 1.0%): causes antibody precipitation
Visual analysis ([2]; preservative 0.5%): Clear
Visual analysis [2, 9]: clear
Visual analysis ([2]; preservative 1.0%): Slightly cloudy
Tm (by DSC) ([4]; preservative 0.5%): 78.5 °C
Tm (by DSC) ([4]; preservative 1.0%): 75.8 °C
Tm (by DSC) ([4]; preservative 2%): 72.3 °C
aggregation (in words) ([5]; benzyl alcohol at high concentrations (≧1.0%)): caused significant aggregation
Monomer (%) ([5]; preservative 0.1%): 97.65%
Monomer (%) ([5]; preservative 0.5%): 93.92%
Percent monomer (by SEC) ([5]; preservative 0.5%): 92.3%
Percent monomer (by SEC) [5, 9]: ~92%
Monomer (%) ([5]; preservative 0.75%): 87.97%
Percent monomer (by SEC) ([5]; preservative 1.0%): 13.4%
Compound: OCc1ccccc1 [Benzyl alcohol, benzyl alcohol]
Potency (%) ([1]; preservative 0.1%): 81%
Potency (%) ([1]; preservative 0.5%): 75%
Potency (%) ([1]; preservative 0.75%): 74%
Visual analysis ([2]; preservative 2%): caused sample precipitation; also recorded: Precipitated
antimicrobial efficacy against fungi (in words) ([3]; 7 days, at least 0.5% benzyl alcohol, parabens and chlorobutanol at their highest concentration): satisfactory
b-coefficient, Fungal LR [3, 10]: 0.51
Fungi × 10^5 (cfu/mL) ([3]; preservative 0.1%): 12 × 10^5 cfu/mL
Fungi × 10^5 (cfu/mL) ([3]; preservative 0.5%): 0 × 10^5 cfu/mL
Fungi × 10^5 (cfu/mL) [3, 9]: complete kill
Fungi × 10^5 (cfu/mL) ([3]; preservative 0.75%): 0 × 10^5 cfu/mL
Fungi × 10^5 (cfu/mL) [3, 11]: complete kill
b-coefficient, Fungal LR [3, 12]: −0.46
log reduction value predicted by simulation, fungi [3, 13]: 3.7
Stability by SEC (in words) ([5]; 7 days at 45° C.): unstable due to the formation of soluble aggregates
USP and EP/BP regulatory requirements [6]: USP and EP/BP (criterion B only) regulatory requirements were satisfied
antimicrobial efficacy against bacteria (regression analysis, in words) ([7]; I-optimal design, 14 days at room temperature): statistically significant antimicrobial efficacy
b-coefficient, Bacterial LR [7, 10]: 1.04 ± 0.05
Bacterial × 10^4 (cfu/mL) ([7]; preservative 0.1%): TNTC
Bacterial × 10^4 (cfu/mL) ([7]; preservative 0.5%): 0 × 10^4 cfu/mL
Bacterial × 10^4 (cfu/mL) [7, 9]: complete kill
Bacterial × 10^4 (cfu/mL) ([7]; preservative 0.75%): 0 × 10^4 cfu/mL
Bacterial × 10^4 (cfu/mL) [7, 11]: complete kill
b-coefficient, Bacterial LR [7, 12]: −0.68 ± 0.11
log reduction value predicted by simulation, bacteria [7, 13]: 4.8
protein stability compared with the control formulation [8]: comparable to that of the control formulation
